One molecule from patent publication US20020098186A1, “Use of endothelin inhibitors for treatment or prevention of fibrotic disorders” (priority 1999, published 2002) can be followed below.

The test deals with rat secondary biliary liver fibrosis (BDO). Put plainly: Histological assessment (staging) of liver fibrosis in BDO rats. The test is classed as in vivo. The procedure:
Female adult wistar rats, average weight 206±19 g, underwent the following microsurgical procedure under an operating microscope (OPMI 6-2, Zeiss, Germany) (B. Gerling, M. Becker, J. Waldschmidt, D. Schuppan (1996). J. Hepatol. 25:79-84; G. Boigk, L. Stroedter, H. Herbst H, et al. (1997). Hepatology 26:643-639.): 1. midline abdominal incision following anaesthesia with 100 mg/kg ketamine-hydroochloride (Ketanest®, Parke-Davis, Germany) and 10 mg/kg 5,6-dihydro-2-(2,6-xylidino)-4H-1,3-thiazine-hydrochloride (Rompun®, Bayer, Germany); 2. dissection of the common bile duct, insertion of a teflon catheter (Abbocath -T 26 G, venisystems, U.S.A.) and placement of a distal complete and a proximal incomplete ligature with 5-0 silk (Permahand , Ethicon, Germany); 3. retrograde injection of sodium-amidotrizoate (Ethibloc®, Ethicon Germany) at a dose of 0.02 ml/100 g body weight; 4. removal of the catheter, closure of the proximal ligature, scission of the bile duct between the ligatures and wound closure. After bile duct occlusion (BDO), animals received normal chow (Altromin®, Lage, Germany) and were allowed free access to water. […] The following therapeutic groups were formed: 1. BDO and LU at 80 mg/kg/d for 6 weeks (BDO 80/1-6:n=20); 2. BDO and LU at 80 mg/kg/d from week 4-6 of BDO (BDO 80/4-6:n=20); 3. BDO and LU at 10 mg/kg/d (sham 80/ 1-6:n=10), rats without medication (control: n=10) and bile duct occluded animals without treatment for 6 weeks (BDO: n=20) served as controls.
For each liver 1 μm paraffin sections of the right and the left lobe were stained with hematoxylin/eosin, trichrome (Masson-Goldner) and silver impregnation (Gomori), and scores (see below of both lobes averaged. Inflammation and necrosis were graded according to the histological activity index of Knodell et al. (R. G. Knodell, K. G. Ishak, W. C. Black, et al. (1981). Hepatology 1:431-435.). Staging of fibrosis was modified from (G. Boigk, L. Stroedter, H. Herbst H, et al. (1997). Hepatology 26:643-649.) as follows: stage 0; normal; stage I: portal fiels marginally expanded by bile ductules; stage II: expanded portal fields which occasionally […] each other; stage III: markedly expanded portal fields, all of which broadly contact each other, separating hepatocellular islands; stage IV: the liver is entirely filled with fibrotic biliary proliferations that entrap few residual hepatocytes (severe cirrhosis). Scores of the right and left lobes were averaged to give single numerical values for each liver.

[1] abbreviates: BDO/LU 80/1-6: LU 80 mg/kg/d week 1-6.
Setting [2] is: BDO/LU 80/4-6: LU 80 mg/kg/d week 4-6.

`COc1cc(OC)nc(O[C@H](C(=O)O)C(OC)(c2ccccc2)c2ccccc2)n1` [LU]: under setting [1], the “Histological assessment of fibrosis: animals at Stage I” value worked out at 2, the “Histological assessment of fibrosis: animals at Stage II” value is 4 and the “Histological assessment of fibrosis: animals at Stage III” value (shortened to “Histological assessment … at Stage III”) was 4. Besides, under setting [2], the “Histological assessment of fibrosis: animals at Stage I” value came to 4, the “Histological assessment of fibrosis: animals at Stage II” value is 5, the “Histological assessment … at Stage III” value is 3 and the “Histological assessment of fibrosis: animals at Stage IV” value was determined as 2. Further, for the setting “headed BDO/LU 80/1-6”, the “Histological assessment of fibrosis: animals at Stage I” value came out at 8, the “Histological assessment of fibrosis: animals at Stage II” value is listed as 5, the “Histological assessment … at Stage III” value is recorded as 4 and the “Histological assessment of fibrosis: animals at Stage IV” value is 3. Further, under “rats with BDO, administration of LU”, the Histological fibrosis score entry is listed as “improved histological fibrosis score”. For the same molecule, the “Architectural distortion of the liver, semiquantitatively graded” value (rats with BDO, low-dose vs high-dose group (not shown)) is recorded as “even more significantly reduced in the low-than in the high-dose group”.
